# Entries after “also recorded” stand apart in the source; their conditions may differ.
# Tests used:
# Experiment in all cases: T cell antigen assay, IFN-gamma ELISA response of T cell clone
# Format in all cases: cell-based, NOD mouse
# T cell clone BDC-6.9 = conditions: for T cell recognition/activation by HIP sequence (IFN-gamma response): BDC-6.9 (same TCR as BDC-9.3); for IFN-gamma T cell response to peptides: BDC-6.9, synthetic peptides
# Procedure: (§1) The antigenicity of biochemical fractions, peptides, or reaction mixtures was assessed through the IFN-y responses of T-cell clones. In 96-well microtiter plates, assay cultures contained 2×10^4 responder T cells, 2.5×10^4 NOD peritoneal exudate cells as antigen-presenting cells, and -cell antigen. ELISA (BD Biosciences) was used to determine IFN-gamma production by the responder T cells. Aliquots of cell extracts (β-Mem) were used as positive controls throughout the experiments. Test wells contained biochemical fractions, peptides, or reaction mixtures. Synthetic peptides (>95%) were obtained from CHI Scientific.
# (§2) For the synthesis of a HIP peptide through chemical crosslinking of an N-terminally acetylated “left peptide” and an unmodified “right peptide”, a two-step crosslinking procedure was adopted. To ensure water solubility of peptides, “left peptides” (>85%, CHI-Scientific) were N-terminally extended and “right peptides” (>85%, CHI-Scientific) were C-terminally extended through the addition of two arginine residues separated by an alanine residue from the core amino acid sequences. A total of 10 μl “left peptide” (10 mM: SEQ ID NO: 177 Acetyl-RRAHLVEAL. SEQ ID NO: 178 Acetyl-RRALVEALY, SEQ ID NO: 179 Acetyl-RRAVEALYL, SEQ ID NO. 180 Acetyl-RRAGDLQTL, SEQ ID NO: 181 Acetyl-RRADLQTLA, SEQ ID NO: 182 Acetyl-RRALQTLAL, SEQ ID NO: 183 Acetyl-RRAQTLALE, or SEQ ID NO: 184 Acetyl-RRATLALEV) was added to 74.5 μl reaction buffer (20 mM MES, 150 mM NaCl) in a 1.5 ml eppendorf tube, followed by the addition of a carbodiimide, such as, for example, 1.5 μl freshly prepared 500 mM 1-Ethyl-3-[3-dimethylaminopropyl]carbodiimide hydrochloride (EDC) and 1.5 μl 1000 mM N-hydroxysuccinimide (NHS). After 15 min of incubation at room temperature, a reducing agent was added, for example, […] of DTT (1000 mM) were added to quench residual EDC. Following another 15 min of incubation at room temperature, […] of “right peptide” (10 mM: SEQ ID NO: 185 KCNTATARR, SEQ ID NO: 186 NAARDPARR, SEQ ID NO: 187 TPVRSGTARR, or SEQ ID NO: 188 WSRMDARR) were added. Reaction mixtures were incubated for 16 h at 37° C., prior to the direct addition of […] to the T cell assay plates (see for example U.S. Pat. No. 5,589,458). ELISA was used to measure IFN-gamma T cell responses to individual HIP reaction mixtures. For each T cell clone, the ELISA absorbance values to all peptides were averaged and the standard deviation was calculated. If the absorbance value toward an individual HIP was three times the standard deviation (3×sd) above the average signal, the response toward the peptide was classified as positive.
# T cell clone BDC-9.3 = conditions: for T cell recognition/activation by HIP sequence (IFN-gamma response): BDC-9.3, synthetic HIP library screen (FIG. 2E); for IFN-gamma T cell response to peptides: BDC-9.3, exemplifying the IAPP-reactive clones, synthetic peptides, FIG. 4B
# Procedure: as §1, §2
# [1] = tested on: CD4 T cell clone BDC-10.1; conditions: synthetic HIP library screen (FIG. 2C)
# Procedure: as §1, §2
# [2] = tested on: CD4 T cell clone BDC-9.46; conditions: synthetic HIP library screen (FIG. 2D)
# Procedure: as §1, §2
# CD4 T cell clone BDC-2.5 = conditions: for T cell recognition/activation by HIP sequence (IFN-gamma response): BDC-2.5, synthetic HIP library screen, positive if ELISA absorbance 3×sd above average (FIG. 2B); for IFN-gamma T cell response to peptides: BDC-2.5, illustrating the WE14-reactive clones, synthetic peptides, FIG. 4A
# Procedure: as §1, §2
substance,measurement,setting,value
DLQTLALNAAR [Sequence 2],T cell recognition/activation by HIP sequence (IFN-gamma response),T cell clone BDC-6.9,recognized
same,T cell recognition/activation by HIP sequence (IFN-gamma response),T cell clone BDC-9.3,recognized
DLQTLALWSRM [Sequence 1],T cell recognition/activation by HIP sequence (IFN-gamma response),[1],recognized
same,T cell recognition/activation by HIP sequence (IFN-gamma response),[2],recognized
same,T cell recognition/activation by HIP sequence (IFN-gamma response),CD4 T cell clone BDC-2.5,recognized
IAPP2-HIP: HIP spanning full-length Ins2 C-Peptide fragment ending in LQTLAL on the N-terminal side and the entire IAPP2 sequence on the C-terminal side (EVEDPQVAQLELGGGPGAGDLQTLALNAAGDPNRESLDFLLV),IFN-gamma T cell response to peptides,T cell clone BDC-6.9,low nanomolar concentrations
same,IFN-gamma T cell response to peptides,T cell clone BDC-9.3,low nanomolar concentrations
"IAPP2: IAPP propeptide 2, naturally occurring cleavage product found in secretory granules of β-cells (NAAGDPNRESLDFLLV)",IFN-gamma T cell response to peptides,T cell clone BDC-6.9,Neither BDC-9.3 nor BDC-6.9 recognize
same,IFN-gamma T cell response to peptides,T cell clone BDC-9.3,Neither BDC-9.3 nor BDC-6.9 recognize; also recorded: not responsive
LQTLALNAARD [SEQ ID NO: 197],T cell recognition/activation by HIP sequence (IFN-gamma response),T cell clone BDC-6.9,recognized
same,T cell recognition/activation by HIP sequence (IFN-gamma response),T cell clone BDC-9.3,recognized
LQTLALWSRMD [SEQ ID NO: 199],T cell recognition/activation by HIP sequence (IFN-gamma response),[1],activate
same,T cell recognition/activation by HIP sequence (IFN-gamma response),[2],activate
same,T cell recognition/activation by HIP sequence (IFN-gamma response),CD4 T cell clone BDC-2.5,activate
WE14-HIP: HIP spanning full-length Ins2 C-Peptide fragment ending in LQTLAL on the N-terminal side and the entire WE14 sequence on the C-terminal side (EVEDPQVAQLELGGGPGAGDLQTLALWSRMDQLAKELTAE),IFN-gamma T cell response to peptides,CD4 T cell clone BDC-2.5,low nanomolar concentrations
WE14: naturally occurring peptide cleavage product of chromogranin A (ChgA) (WSRMDQLAKELTAE),IFN-gamma T cell response to peptides,CD4 T cell clone BDC-2.5,weakly antigenic; also recorded: poorly antigenic; also recorded: high concentrations
insulin 2 C-peptide fragment ending with the amino acid sequence SEQ ID NO: 192 DLQTLAL: insulin 2 C-peptide fragment ending with DLQTLAL (EVEDPQVAQLELGGGPGAGDLQTLAL),IFN-gamma T cell response to peptides,CD4 T cell clone BDC-2.5,None of the clones respond
same,IFN-gamma T cell response to peptides,T cell clone BDC-9.3,None of the clones respond
insulin 2 C-peptide: full length mouse insulin 2 C-peptide (EVEDPQVAQLELGGGPGAGDLQTLALEVAQQ),IFN-gamma T cell response to peptides,CD4 T cell clone BDC-2.5,None of the clones respond
same,IFN-gamma T cell response to peptides,CD4 T cell clone BDC-2.5; listed as Ins2 C-Peptide,None of the clones respond
same,IFN-gamma T cell response to peptides,CD4 T cell clone BDC-2.5; listed as insulin C-peptide,none of the WE14-reactive T cell clones recognize
same,IFN-gamma T cell response to peptides,T cell clone BDC-9.3,None of the clones respond
